These results are taken from publication PMC13086964, “USP7 deubiquitinase stabilizes FAN1 to support DNA crosslink repair and suppress CAG repeat expansion” (Nature Communications, 2026).

Holding throughout (type): cell-based, human
Experiment [1] concerns HeLa parental and FAN1 KO cells. The experiment is described as follows: apoptosis: PARP-1 and caspase-3 cleavage, HeLa. The conditions noted are these: 48 h. As to the method:
(§1) Fig. 4 USP7 facilitates FAN1 localization and function during ICL repair. A QIBC analysis of chromatin-bound GFP-FAN1 foci in U2OS^eGFP-FAN1 cells transfected with either non-targeting (Ctrl), USP7 or FANCD2 siRNA oligos. 24 h later, cells were either mock-treated (–) or treated (+) with MMC (150 ng/ml) for 24 h. Color-coded scatterplots (from grey to green) indicate the number of GFP-FAN1 foci per nucleus from one biological replicate. Mean (solid line) and standard deviation (SD) from the mean (dashed lines) are indicated. Representative images are shown (bottom). Scale bar: 10 μm. This experiment was repeated three times. B QIBC analysis of endogenous FANCD2 foci in U2OS^eGFP-FAN1 cells transfected with either non-targeting (Ctrl) or the indicated siRNA oligos. 24 h later, cells were either mock-treated (−) or treated (+) with MMC (150 ng/ml) for 24 h. Color-coded scatterplots (from grey to blue) indicate the number of FANCD2 foci per nucleus from one biological replicate. Mean (solid line) and standard deviation (SD) from the mean (dashed lines) are indicated. […] 24 h later, cells were either mock-treated (−) or treated (+) with MMC (1 μg/ml) for 48 h and whole-cell lysates were analysed by immunoblotting. […] Relative FAN1, cleaved PARP-1 or cleaved Caspase-3 protein levels were determined by quantification of the respective band intensity (normalized to GAPDH) with the ImageJ software. […]

Experiment [2] concerns USP7 foci in U2OS cells. The experiment is described as follows: QIBC of endogenous USP7 foci. The conditions noted are these: MMC 150 ng/ml, 24 h. As to the method:
Automated multichannel wide-field microscopy for QIBC was performed using the Olympus ScanR System as described previously. Images of cell populations were acquired under non-saturating conditions with Olympus ScanR Image Acquisition software 3.2 and 3.3.0, typically 16 (4×4) images per coverslip, and identical settings were applied to all samples of the same experiment. Images were analysed with the inbuilt Olympus ScanR Image Analysis Software Version 3.2 and 3.3.0, a dynamic background correction was applied, and nuclei segmentation was performed using an integrated intensity-based object detection module based on the DAPI signal. All downstream analyses were focused on properly detected nuclei containing a 2C-4C DNA content as measured by total and mean DAPI intensities. Fluorescence intensities were quantified and are depicted as arbitrary units. Color-coded scatterplots of asynchronous cell populations were generated with Spotfire data visualization software (TIBCO Spotfire 10.10.1.7). Within one experiment, similar cell numbers were compared for the different conditions. For visualizing discrete data in scatterplots, mild jittering (random displacement of data points along discrete data axes) was applied to demerge overlapping data points. Representative scatterplots and quantifications of independent experiments, typically containing several thousand cells each, are shown. […]

Experiment [3] concerns FAN1 protein level. The experiment is described as follows: immunoblot of FAN1 levels after MMC, HeLa. Conditions: MMC 1 μg/ml, 48 h. As to the method:
as §1
On the technique in general: In western blotting, separated proteins are transferred to a membrane and probed.

With `CO[C@@]12[C@H](COC(N)=O)C3=C(C(=O)C(C)=C(N)C3=O)N1C[C@@H]1N[C@@H]12` [MMC, Mitomycin C], the “apoptosis (cleavage of PARP-1 and caspase-3)” value is on record as “further amplified” in experiment [1] (HeLa FAN1 KO cells depleted of USP7, MMC 1 µg/ml) and “increased apoptosis” in experiment [1] (HeLa, USP7 depletion or FAN1 loss, MMC 1 µg/ml). The USP7 nuclear foci entry in experiment [2] is on record as “increased modestly in numbers”. Further, the “FAN1 levels in response to MMC” value in experiment [3] is given as “upregulated”. Besides, in experiment [3] (USP7 siRNA), the “MMC-induced FAN1 upregulation with USP7 depletion” value is given as “abrogated by USP7 depletion”.
